The subject of assay [1] is COX-2 mRNA. Nature of the assay: RT-PCR of COX-2 mRNA in LPS and fMLP-treated U937-derived macrophages. Format: cell-based, human. The following applies: 10 μM each; for inhibition of the mRNA expression of COX-2: 2 h pretreatment before LPS 1 μg/ml priming or fMLP 10 μM stimulation, FIGS. 4 A-C; for order of suppression potency of the COX-2 mRNA expression induced by LPS and fMLP: FIG. 4C. The protocol:
The human monocyte line U937 was obtained from the cell bank in Shanghai Institute of Biological Sciences, Chinese Academy of Sciences. Monocytic cells of 3-4 passages were grown to confluence in RPMI 1640 (GIBCO-BRL, Glasgow, Scotland) containing 10% fetal bovine serum at 37° C. in a 5% CO2 humidified incubator during all experimental procedures. Macrophages were pretreated with procyanidins B1 dimer, B2 dimer, A1 dimer, and flavanols (−)-catechin and (+)-epicatechin (each 10) for 2 h before LPS (1 μg·ml^−1) priming or fMLP (10 μM) stimulation for 2 h. The normal macrophages without LPS or fMLP treatment were considered as controls. They were then differentiated to macrophages in the medium containing 100 nM PMA and allowed to adhere for 48 h, after which they were fed with PMA-free medium and cultured for 24 h prior to use. Cells from different groups were collected and total RNA was prepared with TRI-REAGENT-LS extraction kit The expression of RNAs was determined by RT-PCR. Complementary DNA was created from RNA using TrueScript MMLV reverse transcriptase and oligo d (T) 18 primers. 5 μg RNA was included in each reaction.
The data are presented as means±SD and compared with ANOVA and least significant difference test using SPSS statistical program. The level of the statistical significance was set at P<0.05.

The next assay relates to COX-2 protein expression. The assay is described as follows: Western blot of LPS-induced COX-2 protein expression in THP-1 cells. Format: cell-based, human. The settings on record: 50 μM, 30 min pretreatment with B2 followed by 4 hour LPS treatment. The protocol:
(§1) Human monocytic THP-1 cells from acute monocytic leukemia (American Type Culture Collection, Manassas, Va.) in RPMI 1640 medium (Life Technologies, Rockville, Md.), with 4.5 g/L glucose, 10 nM HEPES, 1 mM sodium pyruvate, and 50 μM 2-ME supplemented with 10% FBS, were cultured under a humidified 5% CO2 atmosphere at 37° C. For differentiation, THP-1 cells were plated at 1×10^6 cells/ml in the medium containing 100 nM PMA and allowed to adhere for 48 h, after which they were fed with PMA-free medium and cultured for 24 h prior to use. LPS was used at concentration of 1 μg/ml in the medium. sf9 cells were cultured in monolayer at 28° C. in Grace's supplemented medium with 10% heat-inactivated fetal bovine serum.
5×10^6 cells were resuspended in modified RIPA lysis buffer (Tris-HCl 50 mM, pH 7.4 NaCl 150 mM, EDTA 1 mM, Na-deoxycholate 0.25%, NP-40 1%, PMSF 1 mM, Na3VO4 1 mM, NaF 1 mM, Aprotinin 10 μg/ml, leupeptin 5 μg/ml, pepstatin 5 μg/ml), and lysed cells on ice for 45 min. The lysate was centrifuged at 14,000×g for 15 min to sediment the particulate materials. The protein concentration of the supernatant was measured by the method of Lowry (Lowry et al., J. Biol. Chem. 193:265-267, 1951). Samples were electrophoresed in SDS/PAGE gels and separated proteins were transferred onto a PVDF membrane. […]
In general terms: Immunoblotting shows a protein as a band on a membrane.

In assay [2] the test system is COX-2 mRNA. The assay is described as follows: Real-time quantitative RT-PCR of COX-2 mRNA in LPS-treated differentiated THP-1 cells. Format: cell-based, human. The settings on record: differentiated THP-1 cells exposed to dimer B2 and LPS 1 μg/ml for 4 h; FIG. 1. The protocol:
as §1
Total RNA was extracted from macropahges with TRIzol reagent (Invitrogen Corporation, Carlsbad, Calif.). Real-time quantitative RT-PCR was performed using the Opticon 2 (MJ Research Inc., Waltham, Mass.). Sequence specific PCR primers for COX-2 [accession no. NM_000963; forward primer: 5′-[…]-3′ [SEQ ID NO: 1]; reverse primer: 5′-[…]-3′ [SEQ ID NO: 2]] and GAPDH [accession no. NM_002046; forward primer: 5′-[…]-3′ [SEQ ID NO: 3]; reverse primer: 5′-[…]-3′ [SEQ ID NO: 4]] were designed using the Primer Premier software version 5.00. Standard curves were run on the same plate and the relative standard curve method was used to calculate the relative gene expression. […]

In assay [3] the target is T1, recombinant human COX-2 enzyme (Homo sapiens, UniProt P35354).
T1 construct: made in house; host or cells: sf9 insect cells infected with hCOX-2 recombinant baculovirus
T1 sequence (P35354 18-604): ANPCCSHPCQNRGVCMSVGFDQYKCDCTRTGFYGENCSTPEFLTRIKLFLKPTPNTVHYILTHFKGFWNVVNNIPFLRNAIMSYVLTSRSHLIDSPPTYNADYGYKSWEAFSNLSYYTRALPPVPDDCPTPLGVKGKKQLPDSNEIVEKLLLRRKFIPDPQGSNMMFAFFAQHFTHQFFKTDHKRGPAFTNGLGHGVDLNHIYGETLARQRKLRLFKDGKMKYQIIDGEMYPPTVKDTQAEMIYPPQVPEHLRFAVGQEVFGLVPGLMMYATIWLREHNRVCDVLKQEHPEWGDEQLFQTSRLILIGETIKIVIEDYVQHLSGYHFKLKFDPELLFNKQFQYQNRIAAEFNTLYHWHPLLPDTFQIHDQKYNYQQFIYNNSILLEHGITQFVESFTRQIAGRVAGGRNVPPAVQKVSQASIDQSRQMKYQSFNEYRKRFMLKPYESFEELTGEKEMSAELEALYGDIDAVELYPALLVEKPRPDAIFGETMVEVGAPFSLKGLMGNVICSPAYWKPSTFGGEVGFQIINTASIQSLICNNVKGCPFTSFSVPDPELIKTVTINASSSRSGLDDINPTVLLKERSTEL
The assay is described as follows: Determination of COX-2 enzyme activity (PGE2 RIA, baculovirus-expressed enzyme in sf9 cells). Type of assay: biochemical. The settings on record: baculovirus-expressed human recombinant COX-2; 10 μmol/L arachidonic acid; FIG. 3. The protocol:
The effect of procyanidin dimer B2 and NS398, a selective COX-2 inhibitor (positive control), on the activity of COX-2 was measured using baculovirus-expressed recombinant human COX-2 enzyme as previously described (Zhang et al., Acta. Pharmacol. Sin. 25(8):1000-1006, 2004). Briefly, 24 h after infecting sf9 cells with hCOX-2 recombinant baculovirus, the cells were collected and washed in HHBS. The assays were performed as follows. One milliliter of Hank's solution containing 1×10^5 COX-2 expressing cells plus 9×10^5 uninfected sf9 cells was dispensed per well of 24-well polypropylene plates. B2, NS398, or DMSO vehicle (10 μL) was added to the appropriate well containing the cell suspension. Following a 15-min drug or DMSO preincubation at 37° C., the cells were challenged with 10 μmol/L arachidonic acid
(Sigma) in ethanol and incubated for 10 min. Reactions were terminated by the addition of 100 μL of 1 mol/L HCl, neutralized with 100 μL of 1 mol/L NaOH. The cells were pelleted for 10 min at 300×g and the levels of PGE2 in the supernatant were determined by a PGE2-specific RIA (Beijing East Asia Institute of Immunology). The concentration of PGE2 was then determined by interpolation from a standard curve and inhibition calculated by comparison of the PGE2 production by drug-treated cells (B2 and NS398) with that of DMSO-treated cells.

Entries after “also recorded” stand apart in the source; their conditions may differ.

For `Oc1cc(O)c2c(c1)O[C@@H](c1ccc(O)c(O)c1)[C@@H](O)C2` [(+)-epicatechin], in the assay with COX-2 mRNA [1], the “inhibition of the mRNA expression of COX-2” value (“inhibition” for short) is recorded as “significant inhibition”; the “order of suppression potency of the COX-2 mRNA expression induced by LPS and fMLP” value (“order” for short) was “(−)-catechin, (+)-epicatechin >B1, B2>A1”.
Turning to `Oc1cc(O)c2c(c1)OC1(c3ccc(O)c(O)c3)Oc3cc(O)c4c(c3C2C1O)OC(c1ccc(O)c(O)c1)C(O)C4` (centres unmarked) [A1, reference compound], in the assay on COX-2 mRNA [1], the “inhibition” value is recorded as “significant inhibition”; the “order” value is reported as “(−)-catechin, (+)-epicatechin >B1, B2>A1”.
For `Oc1cc(O)c2c(c1)O[C@H](c1ccc(O)c(O)c1)[C@H](O)[C@H]2c1c(O)cc(O)c2c1O[C@H](c1ccc(O)c(O)c1)[C@@H](O)C2` [B1, (−)-epicatechin-(4β-8)-(+)-catechin], in the assay on COX-2 mRNA [1], the “inhibition” value is “significant inhibition”; the “order” value is given as “(−)-catechin, (+)-epicatechin >B1, B2>A1”.
Take `Oc1cc(O)c2c(c1)O[C@H](c1ccc(O)c(O)c1)[C@H](O)[C@H]2c1c(O)cc(O)c2c1O[C@H](c1ccc(O)c(O)c1)[C@H](O)C2` [B2, (−)-epicatechin-(4β-8)-(−)-epicatechin]: the “LPS-induced COX-2 protein expression” value with COX-2 protein expression (FIG. 2) was “inhibited”. The “LPS-induced COX-2 protein expression” value with COX-2 protein expression (FIG. 2, listed as 132) is recorded as “inhibitory effect”. Besides, the “levels of mRNA for COX-2 (COX-2 transcription)” value in the assay with COX-2 mRNA [2] was “inhibitory effect; also recorded: reduced in a concentration-dependent manner”. In addition, in assay [3], the “effect on PGE2 synthesis (COX-2 enzyme activity)” value is given as “not inhibited; also recorded: no inhibitory effect”. Further, in the assay on COX-2 mRNA [1], the “inhibition” value was “significant inhibition”; the “order” value is “(−)-catechin, (+)-epicatechin >B1, B2>A1”.
As for (−)-catechin, in the assay on COX-2 mRNA [1], the “inhibition” value is reported as “significant inhibition”; the “order” value was “(−)-catechin, (+)-epicatechin >B1, B2>A1”.

The values above are taken from patent publication US20090286869A1, “Flavanols and B-Type Procyanidins and Inflammation” (Mars, Inc., priority 2005, published 2009).
